Measured values reported in patent publication US9302999B2, “Substituted triazoles as herbicides” (E. I. DU PONT DE NEMOURS AND COMPANY, priority 2012, dated 2016).

Tests used:
[1] = system: corn (Zea mays); assay: Test C pre-/postemergence: corn; format: in vivo
Method in brief: (§1)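 Preemergence on seeds in loam/sand, postemergence on 2–18 cm (1–4-leaf) plants in peat-based medium; compounds in non-phytotoxic solvent with surfactant. After 13–15 days in greenhouse, visual rating versus controls, 0 (no effect) to 100 (complete control).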

[2] = system: morningglory (Ipomoea coccinea); assay: Test C pre-/postemergence: morningglory; format: in vivo
Method in brief: as §1

[3] = system: rice (Oryza sativa); assay: Test B flooded paddy: rice; format: in vivo; conditions: Flood; 250 g ai/ha; applied to paddy water at 2-leaf stage; visually evaluated after 13 to 15 days
Method in brief: (§2)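 Plants were grown to the 2-leaf stage, then pots were flooded to 3 cm above the soil and compounds were applied directly into the paddy water. Water depth was held for the whole test; after 13 to 15 days in a greenhouse, injury was visually rated against untreated controls (0 = no effect, 100 = complete control).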

[4] = system: lambsquarters (Chenopodium album); assay: Test C pre-/postemergence: lambsquarters; format: in vivo
Method in brief: as §1

[5] = system: galium (catchweed bedstraw, Galium aparine); assay: Test C pre-/postemergence: galium; format: in vivo
Method in brief: as §1

[6] = system: Oilseed Rape; assay: Test C preemergence: oilseed rape; format: in vivo; conditions: scale of 0 to 100, 0 is no effect, 100 is complete control
[7] = system: Barnyardgrass; assay: Test C postemergence: barnyardgrass; format: in vivo, Echinochloa crus-galli
Method in brief: (§3)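 Pot-grown plants in peat/vermiculite medium sprayed postemergence at 2–18 cm height (1- to 4-leaf stage). Kept in greenhouse 13 to 15 days, then visually rated against untreated controls on a 0–100 scale (0 = no effect, 100 = complete control).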

[8] = system: Waterhemp; assay: Test C pre-/postemergence: waterhemp; format: in vivo; conditions: scale 0 to 100, 0 no effect, 100 complete control
[9] = system: Waterhemp; assay: Test C postemergence: waterhemp; format: in vivo
Method in brief: as §3

[10] = system: velvetleaf (Abutilon theophrasti); assay: Test C pre-/postemergence: velvetleaf; format: in vivo
Method in brief: as §1

[11] = system: sedge, umbrella (small-flower umbrella sedge Cyperus difformis); assay: Test B flooded paddy: sedge, umbrella; format: in vivo; conditions: Flood; 250 g ai/ha; applied to paddy water at 2-leaf stage; visually evaluated after 13 to 15 days
Method in brief: as §2

[12] = system: winter wheat (Triticum aestivum); assay: Test C pre-/postemergence: winter wheat; format: in vivo
Method in brief: as §1

[13] = Postemergence, 62 g ai/ha, scale 0 to 100 (0 no effect, 100 complete control)
[14] = Postemergence, 125 g ai/ha, scale 0 to 100, 0 no effect, 100 complete control
[15] = Postemergence, 250 g ai/ha, scale 0 to 100
[16] = Preemergence, 31 g ai/ha, scale of 0 to 100, 0 is no effect, 100 is complete control
[17] = Preemergence, 62 g ai/ha, scale of 0 to 100, 0 is no effect, 100 is complete control
[18] = Preemergence, 125 g ai/ha, scale 0 to 100, 0 no effect, 100 complete control
[19] = Preemergence, 250 g ai/ha, scale 0 to 100, 0 no effect, 100 complete control
[20] = Postemergence, 31 g ai/ha, scale 0 to 100 (0 no effect, 100 complete control)
[21] = 31 g ai/ha, scale 0 to 100 (0 no effect, 100 complete control)
[22] = 62 g ai/ha, scale 0 to 100 (0 no effect, 100 complete control)
[23] = Postemergence, 16 g ai/ha, scale 0 to 100, 0 no effect, 100 complete control
[24] = Preemergence, 16 g ai/ha, scale 0 (no effect) to 100 (complete control)

Cc1nn(-c2ccc(F)c(C(F)(F)F)c2)nc1Cc1ccnc(C(F)(F)F)c1 [Compound 156]
Plant response rating, Corn [1, 13]: 15 | Plant response rating, Corn [1, 14]: 25 | Plant response rating, Corn [1, 15]: 30 | Plant response rating, Corn [1, 16]: 5 | Plant response rating, Corn [1, 17]: 5 | Plant response rating, Corn [1, 18]: 10 | Plant response rating, Corn [1, 19]: 30 | Plant response rating, Morningglory [2, 20]: 65 | Plant response rating, Morningglory [2, 13]: 70 | Plant response rating, Morningglory [2, 14]: 75 | Plant response rating, Morningglory [2, 15]: 100 | Plant response rating, Morningglory [2, 16]: 5 | Plant response rating, Morningglory [2, 17]: 10 | Plant response rating, Morningglory [2, 18]: 10 | Plant response rating, Morningglory [2, 19]: 30 | Plant response rating, Rice (0 to 100 scale, 0 is no effect, 100 is complete control) [3]: 50 | Plant response rating, Lambsquarters [4, 20]: 98 | Plant response rating, Lambsquarters [4, 13]: 98 | Plant response rating, Lambsquarters [4, 14]: 98 | Plant response rating, Lambsquarters [4, 15]: 98 | Plant response rating, Lambsquarters [4, 16]: 100 | Plant response rating, Lambsquarters [4, 17]: 100 | Plant response rating, Lambsquarters [4, 18]: 100 | Plant response rating, Lambsquarters [4, 19]: 100 | Plant response rating, Galium [5, 20]: 80 | Plant response rating, Galium [5, 13]: 90 | Plant response rating, Galium [5, 14]: 90 | Plant response rating, Galium [5, 15]: 95 | Plant response rating, Galium [5, 16]: 85 | Plant response rating, Galium [5, 17]: 100 | Plant response rating, Galium [5, 18]: 100 | Plant response rating, Galium [5, 19]: 100 | Plant response rating, Oilseed Rape ([6]; 31 g ai/ha): 10 | Plant response rating, Oilseed Rape ([6]; 62 g ai/ha): 60 | Plant response rating, Barnyardgrass [7, 21]: 20 | Plant response rating, Barnyardgrass [7, 22]: 30 | Plant response rating, Barnyardgrass ([7]; 250 g ai/ha, scale 0 to 100): 55 | Plant response rating, Waterhemp ([8]; Preemergence, 250 g ai/ha): 100 | Plant response rating, Waterhemp [9, 21]: 98 | Plant response rating, Waterhemp [9, 22]: 98 | Plant response rating, Waterhemp ([9]; 250 g ai/ha, scale 0 to 100): 98 | Plant response rating, Velvetleaf [10, 20]: 45 | Plant response rating, Velvetleaf [10, 13]: 50 | Plant response rating, Velvetleaf [10, 14]: 60 | Plant response rating, Velvetleaf [10, 15]: 80 | Plant response rating, Velvetleaf [10, 16]: 5 | Plant response rating, Velvetleaf [10, 17]: 40 | Plant response rating, Velvetleaf [10, 18]: 40 | Plant response rating, Velvetleaf [10, 19]: 100 | Plant response rating, Sedge, Umbrella (0 to 100 scale, 0 is no effect, 100 is complete control) [11]: 85 | Plant response rating, Wheat [12, 20]: 5 | Plant response rating, Wheat [12, 13]: 15 | Plant response rating, Wheat [12, 14]: 25 | Plant response rating, Wheat [12, 15]: 30 | Plant response rating, Wheat [12, 17]: 5 | Plant response rating, Wheat [12, 18]: 20 | Plant response rating, Wheat [12, 19]: 35

FCc1nn(-c2ccc(F)cc2)nc1Oc1ccnc(C(F)(F)F)c1 [Compound 160]
Plant response rating, Corn [1, 23]: 15 | Plant response rating, Corn [1, 20]: 15 | Plant response rating, Corn [1, 13]: 20 | Plant response rating, Corn [1, 14]: 25 | Plant response rating, Corn [1, 24]: 5 | Plant response rating, Corn [1, 16]: 5 | Plant response rating, Corn [1, 17]: 5 | Plant response rating, Corn [1, 18]: 5 | Plant response rating, Morningglory [2, 23]: 60 | Plant response rating, Morningglory [2, 20]: 60 | Plant response rating, Morningglory [2, 13]: 98 | Plant response rating, Morningglory [2, 14]: 98 | Plant response rating, Morningglory [2, 24]: 0 | Plant response rating, Morningglory [2, 16]: 5 | Plant response rating, Morningglory [2, 17]: 15 | Plant response rating, Morningglory [2, 18]: 20 | Plant response rating, Rice (0 to 100 scale, 0 is no effect, 100 is complete control) [3]: 55 | Plant response rating, Lambsquarters [4, 23]: 70 | Plant response rating, Lambsquarters [4, 20]: 80 | Plant response rating, Lambsquarters [4, 13]: 95 | Plant response rating, Lambsquarters [4, 14]: 95 | Plant response rating, Lambsquarters [4, 24]: 95 | Plant response rating, Lambsquarters [4, 16]: 100 | Plant response rating, Lambsquarters [4, 17]: 100 | Plant response rating, Lambsquarters [4, 18]: 100 | Plant response rating, Galium [5, 23]: 55 | Plant response rating, Galium [5, 20]: 80 | Plant response rating, Galium [5, 13]: 85 | Plant response rating, Galium [5, 14]: 95 | Plant response rating, Galium [5, 16]: 5 | Plant response rating, Galium [5, 17]: 100 | Plant response rating, Galium [5, 18]: 100 | Plant response rating, Oilseed Rape ([6]; 31 g ai/ha): 5 | Plant response rating, Oilseed Rape ([6]; 62 g ai/ha): 80 | Plant response rating, Barnyardgrass [7, 21]: 20 | Plant response rating, Barnyardgrass [7, 22]: 30 | Plant response rating, Waterhemp ([8]; Postemergence, 16 g ai/ha): 95 | Plant response rating, Waterhemp [9, 21]: 95 | Plant response rating, Waterhemp [9, 22]: 98 | Plant response rating, Velvetleaf [10, 23]: 20 | Plant response rating, Velvetleaf [10, 20]: 30 | Plant response rating, Velvetleaf [10, 13]: 50 | Plant response rating, Velvetleaf [10, 14]: 75 | Plant response rating, Velvetleaf [10, 24]: 0 | Plant response rating, Velvetleaf [10, 16]: 5 | Plant response rating, Velvetleaf [10, 17]: 30 | Plant response rating, Velvetleaf [10, 18]: 30 | Plant response rating, Sedge, Umbrella (0 to 100 scale, 0 is no effect, 100 is complete control) [11]: 85 | Plant response rating, Wheat [12, 23]: 5 | Plant response rating, Wheat [12, 20]: 5 | Plant response rating, Wheat [12, 13]: 25 | Plant response rating, Wheat [12, 14]: 25 | Plant response rating, Wheat [12, 24]: 0 | Plant response rating, Wheat [12, 17]: 15 | Plant response rating, Wheat [12, 18]: 40
